Results as given in publication PMC4145680 (mBio, 2014).

Target: E. coli SQR (pFAS, SdhABCD^+) (Escherichia coli, UniProt P0AC41)
Experiment: PES-DCIP assay and Clark O2 electrode, IMVs
Type: biochemical
Conditions: pH 7.5 (50 mM MOPS)

E. coli SQR (pFAS, SdhABCD^+), sequence (P0AC41 whole entry): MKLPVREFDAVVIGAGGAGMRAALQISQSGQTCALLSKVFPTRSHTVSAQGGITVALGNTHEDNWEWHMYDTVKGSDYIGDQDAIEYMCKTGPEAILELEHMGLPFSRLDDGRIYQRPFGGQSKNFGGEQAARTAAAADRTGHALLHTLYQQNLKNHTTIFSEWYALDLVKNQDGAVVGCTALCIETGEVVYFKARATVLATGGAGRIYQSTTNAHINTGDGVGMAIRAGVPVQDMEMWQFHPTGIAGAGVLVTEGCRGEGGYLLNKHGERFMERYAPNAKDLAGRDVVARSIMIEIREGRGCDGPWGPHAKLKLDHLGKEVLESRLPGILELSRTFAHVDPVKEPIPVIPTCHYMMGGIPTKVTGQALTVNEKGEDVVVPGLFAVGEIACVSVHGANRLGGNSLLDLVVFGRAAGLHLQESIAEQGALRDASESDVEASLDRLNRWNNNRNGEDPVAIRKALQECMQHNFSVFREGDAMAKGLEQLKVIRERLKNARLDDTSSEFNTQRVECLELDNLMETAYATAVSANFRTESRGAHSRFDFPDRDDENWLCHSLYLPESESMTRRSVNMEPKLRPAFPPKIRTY
E. coli SQR (pFAS, SdhABCD^+), sequence (P07014 whole entry partner): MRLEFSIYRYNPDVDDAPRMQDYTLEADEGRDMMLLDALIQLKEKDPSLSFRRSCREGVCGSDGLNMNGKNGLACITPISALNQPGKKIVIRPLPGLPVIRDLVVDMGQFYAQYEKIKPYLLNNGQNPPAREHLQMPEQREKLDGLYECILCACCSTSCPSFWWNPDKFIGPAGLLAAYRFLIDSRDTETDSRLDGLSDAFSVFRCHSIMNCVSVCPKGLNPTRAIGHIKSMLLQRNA
E. coli SQR (pFAS, SdhABCD^+), sequence (P69054 whole entry partner): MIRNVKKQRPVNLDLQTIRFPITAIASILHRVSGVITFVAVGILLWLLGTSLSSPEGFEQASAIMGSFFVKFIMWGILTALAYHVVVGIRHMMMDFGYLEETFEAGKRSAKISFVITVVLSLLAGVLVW
E. coli SQR (pFAS, SdhABCD^+), sequence (P0AC44 whole entry partner): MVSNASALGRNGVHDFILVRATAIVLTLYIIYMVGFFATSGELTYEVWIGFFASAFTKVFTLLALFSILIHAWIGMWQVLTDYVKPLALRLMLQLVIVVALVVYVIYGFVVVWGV

## O=C(O)CCC(=O)O [succinate]
  PES-DCIP assay and Clark O2 electrode, IMVs: E. coli strains overexpressing either the SQR operon (pFAS, SdhABCD^+)
